Reference: ChEMBL document CHEMBL2074546, “Inhibition of P-glycoprotein by flavonoid derivatives in adriamycin-resistant human myelogenous leukemia (K562/ADM) cells” (Cancer Lett, 2002)

Biological target: ATP-dependent translocase ABCB1 (Homo sapiens, UniProt P08183)
Test: TP_TRANSPORTER: increase in Vincristine intracellular accumulation (0.025 uM) in K562/ADM cells
Type: functional, cell-based
Details: k562/adr

Sequence of ATP-dependent translocase ABCB1 (P08183 whole entry): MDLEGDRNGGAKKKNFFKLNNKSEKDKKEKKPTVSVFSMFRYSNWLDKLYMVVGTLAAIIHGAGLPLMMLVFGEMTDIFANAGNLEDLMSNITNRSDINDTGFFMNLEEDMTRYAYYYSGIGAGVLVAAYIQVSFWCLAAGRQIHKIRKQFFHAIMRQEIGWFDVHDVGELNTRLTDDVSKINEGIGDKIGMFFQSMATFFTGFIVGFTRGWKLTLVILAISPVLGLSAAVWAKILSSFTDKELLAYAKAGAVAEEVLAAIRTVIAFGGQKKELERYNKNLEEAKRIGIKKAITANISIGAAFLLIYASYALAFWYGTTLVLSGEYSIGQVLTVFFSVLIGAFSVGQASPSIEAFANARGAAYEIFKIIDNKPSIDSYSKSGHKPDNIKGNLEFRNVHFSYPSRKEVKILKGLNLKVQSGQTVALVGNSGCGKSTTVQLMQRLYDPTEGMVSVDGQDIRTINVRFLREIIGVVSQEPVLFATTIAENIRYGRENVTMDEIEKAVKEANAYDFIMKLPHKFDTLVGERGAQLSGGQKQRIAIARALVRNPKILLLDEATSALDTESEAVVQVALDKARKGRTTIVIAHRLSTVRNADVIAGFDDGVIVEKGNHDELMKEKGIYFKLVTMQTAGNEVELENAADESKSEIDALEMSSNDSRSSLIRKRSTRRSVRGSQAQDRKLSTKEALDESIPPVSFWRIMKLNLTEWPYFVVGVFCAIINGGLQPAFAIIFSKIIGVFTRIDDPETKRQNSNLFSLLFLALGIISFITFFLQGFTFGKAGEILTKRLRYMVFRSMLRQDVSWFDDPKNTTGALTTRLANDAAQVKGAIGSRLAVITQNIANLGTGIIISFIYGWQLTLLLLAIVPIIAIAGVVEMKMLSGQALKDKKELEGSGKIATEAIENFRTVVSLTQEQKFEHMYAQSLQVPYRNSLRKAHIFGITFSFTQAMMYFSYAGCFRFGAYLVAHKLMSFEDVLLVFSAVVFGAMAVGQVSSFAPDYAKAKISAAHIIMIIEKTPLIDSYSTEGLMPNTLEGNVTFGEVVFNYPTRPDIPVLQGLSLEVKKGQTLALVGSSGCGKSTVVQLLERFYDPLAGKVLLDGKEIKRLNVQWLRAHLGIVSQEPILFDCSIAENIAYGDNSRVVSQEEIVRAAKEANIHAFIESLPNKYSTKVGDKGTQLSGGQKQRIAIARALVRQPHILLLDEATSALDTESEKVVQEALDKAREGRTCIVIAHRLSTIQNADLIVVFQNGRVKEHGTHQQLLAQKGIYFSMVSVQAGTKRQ

| SMILES | Activity |
| --- | --- |
| CCCOc1ccc(-c2oc3cc(OCCC)cc(O)c3c(=O)c2OCCC)c(OCCC)c1 [MORIN PENTAPROPYL ETHER] | inhibitor [(at a rough estimate) 390 % of control] |
| COc1ccc(-c2oc3cc(OC)cc(O)c3c(=O)c2OC)c(OC)c1 [MORIN PENTAMETHYL ETHER] | inhibitor [(at a rough estimate) 470 % of control] |
| CCOc1ccc(-c2oc3cc(OCC)cc(O)c3c(=O)c2OCC)c(OCC)c1 [MORIN PENTAETHYL ETHER] | inhibitor [(at a rough estimate) 1430 % of control] |
| C=CCOc1ccc(-c2oc3cc(OCC=C)cc(O)c3c(=O)c2OCC=C)c(OCC=C)c1 [MORIN PENTAALLYL ETHER] | inhibitor [(at a rough estimate) 500 % of control] |
